The text below walks through data of article PMC5402301, “Discovery of tauroursodeoxycholic acid biotransformation enzymes from the gut microbiome of black bears using metagenomics” (Scientific Reports, 2017).

Holding throughout (assay): NADP+ reduction at […] nm, Michaelis-Menten fit
Common to all, as to format: biochemical
Holding throughout (conditions): NADP+ (0.5 mM in standard assay), 50 mM Tris-HCl pH 8.0, 25 °C

One assay has as its system T1, S1-a-2.
T1 construct: full-length, GST fusion (pGEX-6P-1) expressed in E. coli BL21, GST tag cut off with PreScission protease; raw reads SRA SRP079591

In a further assay the test system is T2, S1-a-1.
T2 construct: full-length, GST fusion (pGEX-6P-1) expressed in E. coli BL21, GST tag cut off with PreScission protease; raw reads SRA SRP079591

In the next assay the test system is T3, H1-a-1.
T3 construct: full-length, GST fusion (pGEX-6P-1) expressed in E. coli BL21, GST tag cut off with PreScission protease; raw reads SRA SRP079591

A further assay has as its system T4, Y1-a-1.
T4 construct: full-length, GST fusion (pGEX-6P-1) expressed in E. coli BL21, GST tag cut off with PreScission protease; raw reads SRA SRP079591

In the next assay the test system is T5, H1-a-2.
T5 construct: full-length, GST fusion (pGEX-6P-1) expressed in E. coli BL21, GST tag cut off with PreScission protease; raw reads SRA SRP079591

The next assay has as its system T6, Y1-b-1.
T6 construct: full-length, GST fusion (pGEX-6P-1) expressed in E. coli BL21, GST tag cut off with PreScission protease; raw reads SRA SRP079591

Take `C[C@H](CCC(=O)NCCS(=O)(=O)O)[C@H]1CC[C@H]2[C@@H]3[C@H](O)C[C@@H]4C[C@H](O)CC[C@]4(C)[C@H]3CC[C@]12C` [TCDCA]: the Michaelis-Menten constant (Km) – broadly, the concentration of substrate that gives half-maximal velocity – in the assay on S1-a-2 worked out at 263 µM; in the assay on S1-a-1, 132 µM; with H1-a-1, 390 µM; with Y1-a-1 it was 556 µM; in the assay with H1-a-2 it was 695 µM.

As for `C[C@H](CCC(=O)NCCS(=O)(=O)O)[C@H]1CC[C@H]2[C@@H]3[C@@H](O)C[C@@H]4C[C@H](O)CC[C@]4(C)[C@H]3CC[C@]12C` [TUDCA], the Km with Y1-b-1 is 6150 µM.
